Laboratory results from paper PMC3914206.

Key:
Format in all cases: binding
[1] = molecular target: T1, panel of 442 kinases (Homo sapiens, UniProt Q9Y5S2); details: Compound Concentration 10 µM
T1 construct: purchased KINOMEscan
Description: (§1) We assessed the selectivity of members of this scaffold using the KINOMEscan methodology across a near comprehensive panel of 442 kinases [[18,27]].

[2] = molecular target: T2, panel of 442 kinases (Homo sapiens, UniProt Q9H3Y6); details: kinase SRMS; compound concentration 10 µM
T2 construct: purchased KINOMEscan
Description: as §1

[3] = molecular target: T3, panel of 442 kinases (Homo sapiens, UniProt Q13470); details: kinase TNK1; compound concentration 10 µM
T3 construct: purchased KINOMEscan
T3 sequence (Q13470 1-666): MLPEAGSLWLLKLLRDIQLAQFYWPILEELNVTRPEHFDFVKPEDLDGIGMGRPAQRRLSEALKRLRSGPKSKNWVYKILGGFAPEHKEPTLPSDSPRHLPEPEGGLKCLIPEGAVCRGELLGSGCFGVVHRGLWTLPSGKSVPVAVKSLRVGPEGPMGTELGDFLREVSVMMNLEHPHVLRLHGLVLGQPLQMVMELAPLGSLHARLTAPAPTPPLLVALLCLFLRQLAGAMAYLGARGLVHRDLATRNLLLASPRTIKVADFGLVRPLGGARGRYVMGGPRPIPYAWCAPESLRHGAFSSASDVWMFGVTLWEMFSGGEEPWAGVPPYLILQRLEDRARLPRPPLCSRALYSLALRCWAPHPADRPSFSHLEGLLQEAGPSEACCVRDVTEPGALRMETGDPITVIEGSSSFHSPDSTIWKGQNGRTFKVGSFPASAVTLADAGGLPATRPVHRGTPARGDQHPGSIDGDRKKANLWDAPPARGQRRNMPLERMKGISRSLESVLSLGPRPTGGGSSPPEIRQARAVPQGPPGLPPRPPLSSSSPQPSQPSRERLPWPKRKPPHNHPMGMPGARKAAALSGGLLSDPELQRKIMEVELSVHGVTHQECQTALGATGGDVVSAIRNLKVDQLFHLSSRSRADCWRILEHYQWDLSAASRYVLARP
Description: as §1

T1 sequence (Q9Y5S2 whole entry): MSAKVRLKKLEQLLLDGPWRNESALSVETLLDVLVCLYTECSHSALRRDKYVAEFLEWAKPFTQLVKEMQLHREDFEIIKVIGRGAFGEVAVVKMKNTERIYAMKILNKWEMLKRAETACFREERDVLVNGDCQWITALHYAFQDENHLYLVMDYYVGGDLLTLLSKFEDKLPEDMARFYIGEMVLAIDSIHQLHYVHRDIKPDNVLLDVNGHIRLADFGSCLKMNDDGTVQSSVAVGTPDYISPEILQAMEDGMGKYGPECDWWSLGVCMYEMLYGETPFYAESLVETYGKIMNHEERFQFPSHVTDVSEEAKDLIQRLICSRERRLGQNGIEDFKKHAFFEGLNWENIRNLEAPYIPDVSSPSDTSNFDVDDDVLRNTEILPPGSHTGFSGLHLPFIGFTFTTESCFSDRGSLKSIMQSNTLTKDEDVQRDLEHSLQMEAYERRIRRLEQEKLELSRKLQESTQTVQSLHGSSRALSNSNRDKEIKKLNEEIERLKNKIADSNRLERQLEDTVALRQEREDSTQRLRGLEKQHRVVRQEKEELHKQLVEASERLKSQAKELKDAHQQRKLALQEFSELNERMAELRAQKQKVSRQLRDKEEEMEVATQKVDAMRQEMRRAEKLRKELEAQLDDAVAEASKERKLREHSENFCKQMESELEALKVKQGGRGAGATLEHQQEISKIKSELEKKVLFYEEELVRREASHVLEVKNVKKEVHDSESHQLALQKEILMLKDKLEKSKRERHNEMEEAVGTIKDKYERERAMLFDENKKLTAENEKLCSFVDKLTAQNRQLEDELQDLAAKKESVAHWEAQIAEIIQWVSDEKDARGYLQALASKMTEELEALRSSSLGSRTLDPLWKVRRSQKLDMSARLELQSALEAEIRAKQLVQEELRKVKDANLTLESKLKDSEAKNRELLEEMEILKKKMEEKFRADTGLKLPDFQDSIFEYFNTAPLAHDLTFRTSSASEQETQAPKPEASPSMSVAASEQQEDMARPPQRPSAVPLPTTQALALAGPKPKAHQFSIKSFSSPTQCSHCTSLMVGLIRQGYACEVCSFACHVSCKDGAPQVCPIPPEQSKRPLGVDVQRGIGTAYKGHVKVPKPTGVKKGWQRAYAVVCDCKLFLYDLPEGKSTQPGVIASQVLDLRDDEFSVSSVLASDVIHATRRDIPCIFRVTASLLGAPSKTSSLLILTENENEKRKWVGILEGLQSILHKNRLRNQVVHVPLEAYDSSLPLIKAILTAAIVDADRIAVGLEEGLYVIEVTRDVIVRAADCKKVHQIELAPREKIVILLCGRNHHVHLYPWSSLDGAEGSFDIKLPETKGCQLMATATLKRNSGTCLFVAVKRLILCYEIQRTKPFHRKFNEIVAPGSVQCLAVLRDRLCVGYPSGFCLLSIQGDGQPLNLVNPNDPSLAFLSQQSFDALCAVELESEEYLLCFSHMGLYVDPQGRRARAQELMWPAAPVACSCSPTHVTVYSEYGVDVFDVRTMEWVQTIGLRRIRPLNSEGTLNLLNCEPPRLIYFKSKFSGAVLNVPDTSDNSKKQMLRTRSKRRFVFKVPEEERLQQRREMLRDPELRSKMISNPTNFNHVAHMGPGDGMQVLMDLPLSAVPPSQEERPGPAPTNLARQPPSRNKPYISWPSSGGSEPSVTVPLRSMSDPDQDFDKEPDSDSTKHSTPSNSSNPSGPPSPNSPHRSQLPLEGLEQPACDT
T2 sequence (Q9H3Y6 whole entry): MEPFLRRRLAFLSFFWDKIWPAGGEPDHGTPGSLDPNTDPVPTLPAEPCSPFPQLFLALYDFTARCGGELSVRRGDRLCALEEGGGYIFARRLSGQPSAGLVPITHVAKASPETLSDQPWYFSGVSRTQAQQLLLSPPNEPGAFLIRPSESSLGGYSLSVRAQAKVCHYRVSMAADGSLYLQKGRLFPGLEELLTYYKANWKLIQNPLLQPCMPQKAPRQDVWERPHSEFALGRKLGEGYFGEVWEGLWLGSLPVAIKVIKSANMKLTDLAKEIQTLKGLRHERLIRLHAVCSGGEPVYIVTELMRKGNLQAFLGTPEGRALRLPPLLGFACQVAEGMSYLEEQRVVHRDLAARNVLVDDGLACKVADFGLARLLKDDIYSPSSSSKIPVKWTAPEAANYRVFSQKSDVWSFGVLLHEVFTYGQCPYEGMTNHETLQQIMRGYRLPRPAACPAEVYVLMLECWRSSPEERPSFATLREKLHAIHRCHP

Row | SMILES | KINOMEscan: MRCKB [1] | % Ctrl, SRMS [2] [% Ctrl] | % Ctrl, TNK1 [3] [% Ctrl]
1 | COc1cc(C(=O)N2CCC(N3CCN(C)CC3)CC2)ccc1Nc1ncc2c(n1)N(C)c1ccccc1C(=O)N2C [15 (LRRK2-IN-1)] | 100 | 77 | 2.8
2 | CCOc1cc(C(=O)N2CCC(N3CCN(C)CC3)CC2)ccc1Nc1ncc2c(n1)N(C1CCCC1)c1ccccc1C(=O)N2C [Compound 26] | 100 | 82 | 53
3 | COc1cc(C(=O)N2CCC(N3CCN(C)CC3)CC2)ccc1Nc1ncc2c(n1)N1CCc3cccc(c31)C(=O)N2C [Compound 24] | – | 100 | 5
4 | COc1cc(C(=O)N2CCC(N3CCN(C)CC3)CC2)ccc1Nc1ncc2c(n1)N(C1CCCC1)c1ccccc1C(=O)N2C [Compound 25, 11-cyclopentyl-2-((2-methoxy-4-(4-(4-methylpiperazin-1-yl)piperidine-1-carbonyl)phenyl)amino)-5-methyl-5H-benzo[e]pyrimido[5,4-b][1,4]diazepin-6(11H)-one] | 100 | 100 | 7.8
